From PubChem BioAssay AID248 (DTP/NCI, 2004)
Several values for one entry are separate records, joined by “and”; a condition that tells them apart may be missing. Equal values may be shown once. Toxic doses and inconclusive results are not listed.

Test system: L1210 leukemia ip in BDF1 mice, survival T/C
Assay: NCI In Vivo Anticancer Drug Screen. Data for tumor model L1210 Leukemia (intraperitoneal) in B6D2F1 (BDF1) mice
Conditions: endpoint: mean survival time, higher = longer survival
Procedure, shortened: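 Read-out is survival time, reported as the treated-group measurement over the vehicle-control measurement.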

[1] = dose: 100.0 mg/kg/injection, schedule: Q04DX002 (ip), vehicle: Klucel (hydroxypropylcellulose) (HPC)
[2] = dose: 200.0 mg/kg/injection, schedule: Q04DX002 (ip), vehicle: Klucel (hydroxypropylcellulose) (HPC)
[3] = dose: 400.0 mg/kg/injection, schedule: Q04DX002 (ip), vehicle: Klucel (hydroxypropylcellulose) (HPC)
[4] = dose: 100.0 mg/kg/injection, schedule: Q04DX002 (ip), vehicle: saline
[5] = dose: 200.0 mg/kg/injection, schedule: Q04DX002 (ip), vehicle: saline
[6] = dose: 50.0 mg/kg/injection, schedule: Q01DX001 (ip), vehicle: carboxymethylcellulose (CMC)
[7] = dose: 200.0 mg/kg/injection, schedule: Q01DX001 (ip), vehicle: carboxymethylcellulose (CMC)
[8] = dose: 100.0 mg/kg/injection, schedule: Q01DX009 (ip), vehicle: Klucel (hydroxypropylcellulose) (HPC)
[9] = dose: 100.0 mg/kg/injection, schedule: Q04DX003 (ip), vehicle: Klucel (hydroxypropylcellulose) (HPC)
[10] = dose: 200.0 mg/kg/injection, schedule: Q01DX009 (ip), vehicle: Klucel (hydroxypropylcellulose) (HPC)
[11] = dose: 200.0 mg/kg/injection, schedule: Q04DX003 (ip), vehicle: Klucel (hydroxypropylcellulose) (HPC)
[12] = dose: 400.0 mg/kg/injection, schedule: Q01DX009 (ip), vehicle: Klucel (hydroxypropylcellulose) (HPC)
[13] = dose: 400.0 mg/kg/injection, schedule: Q04DX003 (ip), vehicle: Klucel (hydroxypropylcellulose) (HPC)
[14] = dose: 100.0 mg/kg/injection, schedule: Q01DX009 (ip), vehicle: saline with Tween-80
[15] = dose: 100.0 mg/kg/injection, schedule: Q04DX002 (ip), vehicle: saline with Tween-80
[16] = dose: 200.0 mg/kg/injection, schedule: Q01DX009 (ip), vehicle: saline with Tween-80
[17] = dose: 200.0 mg/kg/injection, schedule: Q04DX002 (ip), vehicle: saline with Tween-80
[18] = dose: 400.0 mg/kg/injection, schedule: Q01DX009 (ip), vehicle: saline with Tween-80
[19] = dose: 400.0 mg/kg/injection, schedule: Q04DX002 (ip), vehicle: saline with Tween-80
[20] = dose: 75.0 mg/kg/injection, schedule: Q01DX001 (ip), vehicle: carboxymethylcellulose (CMC)
[21] = dose: 100.0 mg/kg/injection, schedule: Q01DX001 (ip), vehicle: carboxymethylcellulose (CMC)
[22] = dose: 100.0 mg/kg/injection, schedule: Q04DX003 (ip), vehicle: saline with Tween-80

O=C(O)c1c2ccccc2nc2[nH]c(=O)[nH]c(=O)c12
T/C [1]: 97 % of control
T/C [2]: 108 % of control
T/C [3]: 108 % of control

CC1CCCCC1C(=O)N1CCCC1 (stereo not drawn)
T/C [4]: 101 % of control
T/C [5]: 105 % of control

COC1=C(NC(C)c2ccccc2)C(=O)C(OC)=C(NC(C)c2ccccc2)C1=O (stereo not drawn)
T/C [6]: 96 % of control
T/C [7]: 89 % of control

O=C(CCCC(=O)NNC(=O)Nc1ccc(Cl)cc1)NNC(=O)Nc1ccc(Cl)cc1
T/C (dose: 50.0 mg/kg/injection, schedule: Q01DX001 (ip), vehicle: saline): 93 % of control
T/C (dose: 100.0 mg/kg/injection, schedule: Q01DX001 (ip), vehicle: saline): 96 % of control
T/C (dose: 200.0 mg/kg/injection, schedule: Q01DX001 (ip), vehicle: saline): 100 % of control
T/C (dose: 400.0 mg/kg/injection, schedule: Q01DX001 (ip), vehicle: saline): 100 % of control

CCOC(=O)C(C)C1=CCCc2c(C)ccc(C)c21 (stereo not drawn)
T/C [8]: 91 % of control
T/C [9]: 98 % of control
T/C [10]: 94 % of control
T/C [11]: 97 % of control
T/C [12]: 94 % of control
T/C [13]: 101 % of control

CCc1ncc(C)n1Cc1ccccc1
T/C (dose: 6.25 mg/kg/injection, schedule: Q01DX009 (ip), vehicle: saline): 109 % of control
T/C (dose: 12.5 mg/kg/injection, schedule: Q01DX009 (ip), vehicle: saline): 102 % of control
T/C (dose: 25.0 mg/kg/injection, schedule: Q01DX009 (ip), vehicle: saline): 102 % of control and 115 % of control

O=C1NC(=O)C(Cc2ccc(Cl)cc2)C(=O)N1
T/C [14]: 103 % of control
T/C [15]: 93 % of control
T/C [16]: 98 % of control
T/C [17]: 101 % of control
T/C [18]: 98 % of control
T/C [19]: 101 % of control

CCc1cc2c(cc1C(=O)/C=C\c1ccco1)C(C)(C)CCC2(C)C
T/C [14]: 103 % of control
T/C [15]: 96 % of control
T/C [16]: 95 % of control
T/C [17]: 93 % of control
T/C [18]: 106 % of control
T/C [19]: 93 % of control

CSc1nc(Cl)c(-c2ccccc2)c(N2CC2)n1
T/C (dose: 25.0 mg/kg/injection, schedule: Q01DX Z (ip), vehicle: methylcellulose (MC)): 98 % of control
T/C (dose: 50.0 mg/kg/injection, schedule: Q01DX Z (ip), vehicle: methylcellulose (MC)): 90 % of control

Cc1ccc(NC(=O)N(CCCl)N=O)cc1
T/C (dose: 0.5 mg/kg/injection, schedule: Q01DX015 (ip), vehicle: carboxymethylcellulose (CMC)): 103 % of control
T/C (dose: 1.0 mg/kg/injection, schedule: Q01DX015 (ip), vehicle: carboxymethylcellulose (CMC)): 107 % of control
T/C (dose: 5.2 mg/kg/injection, schedule: Q01DX015 (ip), vehicle: carboxymethylcellulose (CMC)): 169 % of control
T/C (dose: 9.0 mg/kg/injection, schedule: Q01DX015 (ip), vehicle: carboxymethylcellulose (CMC)): 165 % of control
T/C (dose: 15.0 mg/kg/injection, schedule: Q01DX015 (ip), vehicle: carboxymethylcellulose (CMC)): 206 % of control
T/C (dose: 22.0 mg/kg/injection, schedule: Q01DX001 (ip), vehicle: carboxymethylcellulose (CMC)): 161 % of control
T/C (dose: 25.0 mg/kg/injection, schedule: Q01DX015 (ip), vehicle: carboxymethylcellulose (CMC)): 152 % of control
T/C (dose: 33.0 mg/kg/injection, schedule: Q01DX001 (ip), vehicle: carboxymethylcellulose (CMC)): 152 % of control
T/C [6]: 171 % of control and 197 % of control
T/C [20]: 118 % of control
T/C [21]: 86 % of control

Cc1ccc(-n2c(N)cc(=O)[nH]c2=S)nc1
T/C [4]: 96 % of control
T/C [5]: 100 % of control
T/C (dose: 400.0 mg/kg/injection, schedule: Q04DX002 (ip), vehicle: saline): 107 % of control

O=C(C#Cc1ccccc1)c1ccccc1
T/C (dose: 5.0 mg/kg/injection, schedule: Q01DX009 (ip), vehicle: Klucel (hydroxypropylcellulose) (HPC)): 98 % of control
T/C (dose: 5.0 mg/kg/injection, schedule: Q04DX003 (ip), vehicle: Klucel (hydroxypropylcellulose) (HPC)): 101 % of control
T/C (dose: 10.0 mg/kg/injection, schedule: Q01DX009 (ip), vehicle: Klucel (hydroxypropylcellulose) (HPC)): 96 % of control
T/C (dose: 10.0 mg/kg/injection, schedule: Q04DX003 (ip), vehicle: Klucel (hydroxypropylcellulose) (HPC)): 103 % of control
T/C (dose: 20.0 mg/kg/injection, schedule: Q01DX001 (ip), vehicle: Klucel (hydroxypropylcellulose) (HPC)): 96 % of control
T/C (dose: 20.0 mg/kg/injection, schedule: Q01DX009 (ip), vehicle: Klucel (hydroxypropylcellulose) (HPC)): 102 % of control
T/C (dose: 20.0 mg/kg/injection, schedule: Q04DX003 (ip), vehicle: Klucel (hydroxypropylcellulose) (HPC)): 104 % of control

CN(C)CCSC(CO)c1ccccc1 (stereo not drawn)
T/C [21]: 96 % of control
T/C [7]: 89 % of control
T/C (dose: 400.0 mg/kg/injection, schedule: Q01DX001 (ip), vehicle: carboxymethylcellulose (CMC)): 94 % of control

CSC1C(O)C(CO)OC1n1cnc2c(N)ncnc21 (stereo not drawn)
T/C (dose: 100.0 mg/kg/injection, schedule: Q01DX005 (ip), vehicle: saline): 100 % of control
T/C (dose: 200.0 mg/kg/injection, schedule: Q01DX005 (ip), vehicle: saline): 106 % of control

CCC1(C)CC(=O)N(C/C=C(\C)CCC=C(C)C)C(=O)C1
T/C [22]: 100 % of control
T/C (dose: 200.0 mg/kg/injection, schedule: Q04DX003 (ip), vehicle: saline with Tween-80): 105 % of control
T/C (dose: 400.0 mg/kg/injection, schedule: Q04DX003 (ip), vehicle: saline with Tween-80): 97 % of control

Nc1ccc(C(=O)c2ccc(N)cc2)cc1
T/C [8]: 98 % of control
T/C [1]: 107 % of control
T/C [10]: 120 % of control
T/C [2]: 104 % of control
T/C [12]: 106 % of control
T/C [3]: 96 % of control

CC1(C)C2CCC(C2)C12CC(F)(F)C(F)(F)S2 (stereo not drawn)
T/C (dose: 12.5 mg/kg/injection, schedule: Q01DX009 (ip), vehicle: saline with Tween-80): 97 % of control
T/C (dose: 25.0 mg/kg/injection, schedule: Q01DX009 (ip), vehicle: saline with Tween-80): 100 % of control
T/C (dose: 25.0 mg/kg/injection, schedule: Q04DX003 (ip), vehicle: saline with Tween-80): 101 % of control
T/C (dose: 50.0 mg/kg/injection, schedule: Q04DX003 (ip), vehicle: saline with Tween-80): 101 % of control
T/C [22]: 103 % of control

CC1(Cl)C(=O)NC(=O)NC1=O
T/C (dose: 25.0 mg/kg/injection, schedule: Q04DX003 (ip), vehicle: saline): 96 % of control
T/C (dose: 50.0 mg/kg/injection, schedule: Q04DX003 (ip), vehicle: saline): 96 % of control

CCC(CC)NCC(C)OC(=O)c1ccc([N+](=O)[O-])cc1 (stereo not drawn)
T/C [20]: 96 % of control
T/C (dose: 150.0 mg/kg/injection, schedule: Q01DX001 (ip), vehicle: carboxymethylcellulose (CMC)): 105 % of control
T/C (dose: 300.0 mg/kg/injection, schedule: Q01DX001 (ip), vehicle: carboxymethylcellulose (CMC)): 97 % of control

CC(C)C(C)/C=C/C(C)C1CCC2C3=C(C=CC21C)C1(C)CCCCC1=CC3C1C=C2CCCCC2(C)C2=C1C1CCC(C(C)/C=C/C(C)C(C)C)C1(C)C=C2 (stereo not drawn)
T/C [9]: 90 % of control
T/C [11]: 100 % of control
T/C [13]: 90 % of control

CCOC(=O)c1cnc(C)nc1NCc1ccco1
T/C [9]: 103 % of control
T/C [11]: 95 % of control
T/C [13]: 98 % of control

Cc1c(O)c(Br)c(-c2c(C)c(Br)c(C)c([N+](=O)[O-])c2C)c(O)c1Br
T/C (dose: 75.0 mg/kg/injection, schedule: Q04DX003 (ip), vehicle: Klucel (hydroxypropylcellulose) (HPC)): 103 % of control
T/C (dose: 150.0 mg/kg/injection, schedule: Q04DX003 (ip), vehicle: Klucel (hydroxypropylcellulose) (HPC)): 93 % of control
T/C (dose: 300.0 mg/kg/injection, schedule: Q04DX003 (ip), vehicle: Klucel (hydroxypropylcellulose) (HPC)): 88 % of control
